Assay results: PubChem BioAssay (NCI)
“And” between values parts separate entries of the source, which are not always exact repeats. Identical values can stand only once.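 Briefly, cells in 96-well plates were exposed to five compound concentrations for 48 h, and endpoints were estimated by linear interpolation. At the GI50, growth is halved. At the TGI there is no net growth.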

Legend:
Assay in all cases: growth of human tumour cells (NCI), 48 h
UACC-257 melanoma = test system: UACC-257 melanoma
MCF7 breast = test system: MCF7 breast
MOLT-4 leukemia = test system: MOLT-4 leukemia
LOX IMVI melanoma = test system: LOX IMVI melanoma
CAKI-1 renal = test system: CAKI-1 renal
T-47D breast = test system: T-47D breast
BT-549 breast = test system: BT-549 breast
RPMI-8226 leukemia = test system: RPMI-8226 leukemia

Structure (SMILES)	TGI (UACC-257 melanoma)	TGI (MCF7 breast)	TGI (MOLT-4 leukemia)	TGI (LOX IMVI melanoma)	TGI (CAKI-1 renal)	TGI (T-47D breast) [µM]	TGI (BT-549 breast)	TGI (RPMI-8226 leukemia)	GI50 (UACC-257 melanoma)	GI50 (MCF7 breast)	GI50 (MOLT-4 leukemia)	GI50 (LOX IMVI melanoma)	GI50 (CAKI-1 renal)	GI50 (T-47D breast)	GI50 (BT-549 breast) [µM]	GI50 (RPMI-8226 leukemia)
CC(C(N)C(=O)NC(C(=O)O)C1OC(n2ccc(=O)[nH]c2=O)C(O)C1O)C(O)c1ccc(O)cn1 (stereo not given)	> 100 µM	> 100 µM	> 100 µM	> 100 µM	> 100 µM	> 100	> 100 µM	> 100 µM								
OCCNc1nc(Nc2ccc(Cl)c(Cl)c2)nc2ccccc12	23.1 µM	14.6 µM	13.2 µM	11.9 µM	18.2 µM	25.9	29.8 µM	22.1 µM	11.1 µM	1.96 µM	1.87 µM	3.38 µM	4.66 µM	9.65 µM	16	3.74 µM
CC(C)=CCC/C(C)=C\CCC1(C)OC(=O)C2CC21 (stereo not given)	> 100 µM	> 100 µM and 52.6 µM	50 µM and 35 µM	81.8 µM and 29 µM	> 100 µM and 43 µM	> 100	> 100 µM	68.1 µM and 44.2 µM		64.9 µM and 21.6 µM						
O=C(/C=C/C12c3ccccc3C(c3ccccc31)C1C(=O)NC(=O)C12)c1ccc(F)cc1 (stereo not given)	3.37 µM	4.48 µM	2.9 µM	3.28 µM	4.37 µM	8.13	3.42 µM	4.39 µM	1.79 µM	1.66 µM	0.457 µM	1.67 µM	1.87 µM	2.52 µM	1.69	1.62 µM
O=[N+]([O-])c1cc(C(F)(F)F)ccc1Sc1ccc(C(F)(F)F)cc1[N+](=O)[O-]	> 100 µM	> 100 µM	> 100 µM	> 100 µM	> 100 µM	> 100	> 100 µM	> 100 µM	6.65 µM	9.39 µM	3.92 µM	3.37 µM	5.67 µM	29.2 µM	7.52	6.69 µM
COc1ccc2c(c1)C(=O)/C(=C/c1ccc([N+](=O)[O-])o1)O2	3.45 µM	2.84 µM	3.97 µM	2.86 µM	1.49 µM	2.59	3.44 µM	6.2 µM	1.61 µM	0.716 µM	1.67 µM	1.4 µM	0.432 µM	0.77 µM	1.53	2.01 µM
CCOC(=O)C1=C(C)N(Cc2ccc(Cl)cc2Cl)C2(O)C=CC(=O)C3=C(O)c4ccccc4C(=O)C312 (stereo not given)	61.2 µM	40.1 µM	> 100 µM	16.1 µM	15 µM	39.7	> 100 µM	13 µM	10.9 µM	2.65 µM	3.87 µM	2.75 µM	3.31 µM	6.83 µM	21.6	3.29 µM
NS(=O)(=O)c1ccc(N(/C=C/C(=O)C(F)(F)F)Cc2ccc(Cl)cc2)cc1	52.8 µM	> 100 µM	> 100 µM	42.9 µM	72.7 µM	97.5	62.6 µM	89.1 µM	24.1 µM	93.9 µM	40.1 µM	21.8 µM	24.4 µM	20.8 µM	23.6	26.2 µM
CCOC(=O)c1cc(-c2ccccc2)[nH]c1N/N=C/c1ccc(Cl)cc1	> 100 µM	> 100 µM	> 100 µM	> 100 µM	> 100 µM	> 100	> 100 µM	> 100 µM	> 100 µM	19.5 µM	16.8 µM	62.1 µM	30.9 µM	45.5 µM	46.8	29.8 µM
CCCCCCCCCCCCCCCCCCOCC(CCP(=O)(CP(=O)(O)O)Oc1ccccc1)OCCCCCCCCCCCCCCCCCC (stereo not given)	> 100 µM	> 100 µM	> 100 µM	> 100 µM	> 100 µM	> 100		> 100 µM								
CSC(=S)OC1CC(n2cnc3c(NC(=O)c4ccccc4)ncnc32)OC1CO[Si](C)(C)C(C)(C)C (stereo not given)	> 56.2 µM	40.3 µM	14.8 µM	47.2 µM	> 46.4 µM	> 56.2	> 100 µM	43 µM								
CC(=O)O[C@H]1[C@@H]2OC(=O)C(CSc3ccccc3)[C@@H]2C[C@H]2O[C@]2(C)CC/C=C(\C)CCC[C@@H]1C (stereo not given in full)	19.2 µM	12 µM	> 23.8 µM	13.9 µM	6.34 µM	12.6	8.84 µM	10.4 µM	5.07 µM	2.62 µM	2.52 µM	3.22 µM	1.69 µM	2.43 µM	1.98	0.192 µM
CCCCCCCCCNC(=O)/C=C/c1ccc(O)c(O)c1	69.6 µM	> 100 µM	17.4 µM	29 µM	24.2 µM	59.9	> 100 µM	19.4 µM	29.5 µM	28.3 µM	0.474 µM	11 µM	3.91 µM	15 µM	32.4	0.61 µM
N#Cc1cc(S(=O)(=O)Nc2nnc(-c3ccccc3)c(-c3ccccc3)n2)c(SCc2ccccc2)cc1Cl	46.4 µM	> 100 µM	> 100 µM	32.8 µM	42.1 µM		89.6 µM	51.9 µM	24.2 µM	31 µM	9.82 µM	16.8 µM	21.3 µM		30.9	16.4 µM
CCc1ccc(C(=Nc2ccc(N(C)C(=O)CN3CCN(C)CC3)cc2)c2c(O)[nH]c3ccc(C(=O)OC)cc23)cc1	3.2 µM	1.4 µM	0.908 µM	1.63 µM	1.48 µM	2.68	2.65 µM	1.67 µM	1.54 µM	0.256 µM	0.176 µM	0.337 µM	0.135 µM	0.87 µM	1.32	0.424 µM
O=C(Nc1cccc(Cl)c1)c1cccc(NC2=C(Cl)C(=O)N(Cc3ccccc3)C2=O)c1	> 100 µM	83.7 µM	> 100 µM	> 100 µM	49.1 µM	> 100	> 100 µM	53.3 µM	72.5 µM	25.6 µM	22.2 µM	28.3 µM	15 µM	> 100 µM	36.9	7.58 µM

Structure (SMILES)	TGI (UACC-257 melanoma)	TGI (MCF7 breast)	TGI (MOLT-4 leukemia)	TGI (LOX IMVI melanoma)	TGI (CAKI-1 renal)	TGI (T-47D breast) [µM]	TGI (BT-549 breast)	TGI (RPMI-8226 leukemia)	GI50 (UACC-257 melanoma)	GI50 (MCF7 breast)	GI50 (MOLT-4 leukemia)	GI50 (LOX IMVI melanoma)	GI50 (CAKI-1 renal)	GI50 (T-47D breast)	GI50 (BT-549 breast) [µM]	GI50 (RPMI-8226 leukemia)
[N-]=[N+]=NCCCn1c2c(c3ccc([N+](=O)[O-])cc3c1=O)C(=O)c1cc(F)ccc1-2	> 100 µM	> 55.1 µM	2.7 µM	1.86 µM	4.68 µM	3.08	> 100 µM	1.28 µM	10.3 µM	0.311 µM	0.245 µM	0.343 µM	0.288 µM	0.295 µM	5.37	0.237 µM
Cc1ccc(NS(=O)(=O)c2cccc(C#N)c2)c2[nH]cc(C#N)c12	69.1 µM and 84.7 µM	> 100 µM	> 100 µM	> 100 µM	> 96.8 µM	> 86.4	65.8 µM and 48.4 µM	76.6 µM and 52.2 µM	21.9 µM and 22.5 µM	2.53 µM and 16.8 µM	8.87 µM and 13.6 µM	16.7 µM and 14.9 µM	3.69 µM and 15.7 µM	5.21 µM and 10.2 µM		18.1 µM and 10.5 µM
C/C(=C\c1cc(C(F)(F)F)n(-c2ccc(N)cc2)n1)[C@@H]1C[C@@H]2O[C@]2(C)CCC[C@H](C)[C@H](O)[C@@H](C)C(=O)C(C)(C)[C@@H](O)CC(=O)O1	> 11.1 µM	> 11.1 µM	> 11.1 µM	> 11.1 µM	> 11.1 µM	> 11.1	3.44 µM	> 11.1 µM	0.965 µM	0.0041 µM	0.0515 µM	0.0312 µM	0.221 µM	0.0542 µM	0.065	< 0.0106 µM
C/C(O)=C(\C#N)C(=O)Nc1ccc(C(F)(F)F)cc1	> 100 µM	> 100 µM	> 100 µM	> 100 µM	> 100 µM	> 100	> 100 µM	> 100 µM	> 100 µM	38.5 µM	67.9 µM	8.21 µM	5.46 µM	92 µM	51.7	24.8 µM
CCOC(=O)C#Cc1c(C(=O)OCC)nnn1Cc1ccc([N+](=O)[O-])cc1	7.08 µM	7.22 µM	13.3 µM	2.29 µM	3.3 µM	7.65	17 µM	7.37 µM	2.71 µM	2.3 µM	2.16 µM	0.949 µM	1.76 µM	2.78 µM	5.07	2.8 µM
CC1(C)NCCC[C@]2(C)[C@H]3CC[C@@H]4[C@H]5[C@H](C(=O)/C=C/c6ccccn6)CC[C@]5(CO)CC[C@@]4(C)[C@]3(C)CC[C@@H]12	19 µM	5.8 µM	7.18 µM		6.85 µM	16	11 µM	5.58 µM	3.99 µM	1.85 µM	2.35 µM		2.14 µM	2.78 µM	2.27	2.16 µM
CC([C@H]1CCC2C3CCC4C[C@@H](N)CC[C@]4(C)C3CC[C@@]21C)N(C)C (stereo not given in full)	5.42 µM	18.1 µM	17.2 µM	3.44 µM	18.1 µM	17.9	28.1 µM	11.7 µM	2.4 µM	4.17 µM	5.02 µM	1.61 µM	5.67 µM	3.23 µM	5.9	3.04 µM
O=C(NO)[C@@H](Cc1ccccc1)NS(=O)(=O)c1ccc(-c2ccccc2)cc1	> 25 µM	> 25 µM	> 25 µM	> 25 µM	> 25 µM	> 25	> 25 µM		> 25 µM	> 25 µM	9.43 µM	11.9 µM	9.6 µM	> 25 µM	> 25	
CO/N=C(\COc1ccc2oc(-c3ccccc3)cc(=O)c2c1)c1ccc(OC)cc1	63.3 µM			> 100 µM	69.2 µM	63.8	> 100 µM	81.9 µM	23.4 µM			41.4 µM	22.7 µM	22.8 µM	41.2	27.9 µM
Cc1cn2c(/C=N/N=C(N)N)c(-c3ccccn3)nc2s1	17.9 µM	> 68.2 µM	> 100 µM	46.1 µM	41.7 µM	18.2	25.9 µM	> 84.7 µM	7.78 µM	10.2 µM	8.67 µM	20.1 µM	20.8 µM	7.59 µM	7.69	7.53 µM
CCn1c(-c2nonc2N)nc2c(C#CC(C)(C)O)ncc(OC[C@H]3CCCNC3)c21	41.2 µM	22.9 µM	31.5 µM	45.6 µM	> 100 µM		28.6 µM	50.5 µM	20.8 µM	1.05 µM	0.23 µM	17.8 µM	32.7 µM		6.85	17.4 µM
Fc1cccc(-n2ccc(-c3ccccc3)nc2=S)c1	> 100 µM	41.2 µM	> 100 µM	29.5 µM	14.3 µM		26 µM	> 100 µM	46.7 µM	18.5 µM	54 µM	16.1 µM	4.11 µM		10.4	47.1 µM
NS(=O)(=O)CC1CC[CH-]CC1.[Cl-].[Cl-].[Cl-].[Cl-].[Cl-].[Sb+5].c1ccncc1	> 100 µM	> 100 µM		> 100 µM	> 100 µM	> 100	> 100 µM	> 100 µM	> 100 µM	> 100 µM		> 100 µM	> 100 µM	> 100 µM	> 100	> 100 µM
O=NNc1ccc(Sc2ccc(NN=O)cn2)nc1	> 100 µM	> 100 µM	> 100 µM		> 100 µM	> 100	> 100 µM									
CC(=[N-])N1CCC[C@@H](Nc2c3ccccc3nc3ccccc23)C1.[Cl][Pt].[NH-]CCC[NH-]	> 100 µM	> 100 µM	> 100 µM	> 21.9 µM		> 100	64.7 µM	> 100 µM	2.49 µM	0.357 µM	0.359 µM	2.25 µM		0.0368 µM	2.9	2.42 µM
